Each structure is given as a SMILES string.

For this test, the target named is T1, recombinant human oncostatin M (Homo sapiens, UniProt P13725).
T1 construct: gene OSM; labelled with RED-NHS 2nd generation dye for MST
T1 sequence (P13725 26-221): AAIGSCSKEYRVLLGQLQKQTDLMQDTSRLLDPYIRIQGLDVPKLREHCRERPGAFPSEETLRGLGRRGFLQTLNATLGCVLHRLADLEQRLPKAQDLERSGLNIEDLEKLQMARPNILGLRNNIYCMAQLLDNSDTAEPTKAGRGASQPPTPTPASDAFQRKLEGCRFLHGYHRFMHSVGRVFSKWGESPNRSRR
As to the kind of experiment: microscale thermophoresis. The class given is binding. (In general: In MST a laser heats a spot of the sample, and binding alters the fluorescence response.)

`CC1(C)[C@@H]2CC[C@@]1(CS(=O)(=O)O)C(=O)/C2=C/c1ccc(/C=C2/C(=O)[C@]3(CS(=O)(=O)O)CC[C@H]2C3(C)C)cc1` [1a, Ecamsule]: the Kd (commonly the constant that tells how readily two partners part at equilibrium) was 11.4 ± 2.83 µM.

The values above are taken from paper PMC12073679, “Drug Repurposing to Inhibit Oncostatin M in Crohn’s Disease” (Molecules, 2025).
